According to PMC3313490 (Current Cancer Drug Targets, 2011):
Like-named read-outs stand apart in the source and are kept apart here.

How the values were obtained:
porcine liver PMPMEase [1] = target: T1, porcine liver PMPMEase (Sus scrofa, UniProt Q29550); conditions: for IC50: PMPMEase 1 μg, 15 min pre-incubation at 37°C, RD-PNB substrate
T1 sequence (Q29550 19-566): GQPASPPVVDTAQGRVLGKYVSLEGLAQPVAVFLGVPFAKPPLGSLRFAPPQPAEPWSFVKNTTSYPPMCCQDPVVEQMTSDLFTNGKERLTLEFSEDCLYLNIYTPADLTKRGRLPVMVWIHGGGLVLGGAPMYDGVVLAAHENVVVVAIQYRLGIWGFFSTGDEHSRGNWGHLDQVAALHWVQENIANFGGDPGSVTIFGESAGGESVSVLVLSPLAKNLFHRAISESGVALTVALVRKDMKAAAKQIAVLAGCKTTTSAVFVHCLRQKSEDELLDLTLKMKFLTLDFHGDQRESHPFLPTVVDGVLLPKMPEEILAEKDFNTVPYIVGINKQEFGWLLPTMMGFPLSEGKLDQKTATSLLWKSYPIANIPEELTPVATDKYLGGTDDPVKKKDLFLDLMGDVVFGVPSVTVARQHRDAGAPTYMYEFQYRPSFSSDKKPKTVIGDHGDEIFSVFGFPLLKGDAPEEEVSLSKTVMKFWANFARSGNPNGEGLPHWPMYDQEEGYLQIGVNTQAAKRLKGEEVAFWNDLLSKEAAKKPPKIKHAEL

[2] = test system: human neuroblastoma SH-SY5Y cells; assay: Cell degeneration by microscopy images of treated cells; type: cell-based; conditions: 24 h exposure, up to 200 μM
porcine liver PMPMEase [3] = target: T1, porcine liver PMPMEase; conditions: for Kobs/[I]: PMPMEase 82.5 μg, pre-incubation 0-30 min, 100-fold dilution, RD-PNB substrate
[4] = test system: human neuroblastoma SH-SY5Y cells; type: cell-based; conditions: for EC50: read-out: EC50 cell viability

Row | Compound | IC50 fold lower relative to PMSF (porcine liver PMPMEase [1]) [fold] | Cell degeneration observed [2] | Kobs/[I] (porcine liver PMPMEase [3]) [M⁻¹ s⁻¹] | Kobs/[I] fold higher relative to PMSF (porcine liver PMPMEase [3]) | IC50 (porcine liver PMPMEase [1]) [nM] | also measured
1 | 2-trans-Geranylthioethanesulfonyl fluoride [Compound L-23] | 56 | extensive degeneration | 4100 | over 680 fold |  | EC50 [4]: 144 µM
2 | O=S(=O)(F)CCSc1ccccc1 [Compound L-50, Phenylthioethanesulfonyl fluoride] |  |  | 180 |  | 66 | 
3 | CCCCCCCCCCSCCS(=O)(=O)F [Compound L-52, Decanylthioethanesulfonyl fluoride] |  |  | 1800 |  | 130 | 
4 | O=S(=O)(F)Cc1ccccc1 [PMSF, phenylmethylsulfonyl fluoride, reference compound] |  | did not show degeneration even at 200 μM |  |  |  | Effect on viability of cultured cells ([4]; 24 h exposure): no significant effect
5 | O=S(=O)(F)CCSCc1ccccc1 [Compound L-51, Benzylthioethanesulfonyl fluoride] |  |  | 350 |  | 47 | Kobs/[I] fold lower than that for L-28 (porcine liver PMPMEase [3]; relative to L-28): over 5 fold
6 | CC(C)=CCC/C(C)=C/CC/C(C)=C/CSCCS(=O)(=O)F [Compound L-28, 2-trans, trans-Farnesylthioethanesulfonyl fluoride] | 37 | extensive degeneration | 2000 | > 330 fold | 48 | EC50 ([4]; 24 h exposure, serum-free DMEM/F12): 66.5 µM; EC50 ([4]; 48 h exposure, serum-free DMEM/F12): 24.3 µM; EC50 ([4]; 72 h exposure, serum-free DMEM/F12): 13.6 µM
